Patent publication EP3875456A1, “HETERO-BIFUNCTIONAL PROTEOLYSIS-TARGETING CHIMERAS (PROTACS) FOR THE SELECTIVE DEGRADATION OF FK506-BINDING PROTEINS (FKBPS)” (Technische Universität Darmstadt, priority 2020, dated 2021)

Molecular target: T1, FKBP51FK1 (Homo sapiens, UniProt Q13451)
T1 construct: FKBP51FK1
T1 sequence (Q13451 42-130 limits assumed): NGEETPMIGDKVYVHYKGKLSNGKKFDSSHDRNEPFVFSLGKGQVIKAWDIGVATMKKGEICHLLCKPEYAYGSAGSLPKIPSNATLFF
Test: Binding affinities of exemplary compounds to FKBP51
Method: Binding to FKBP51 is an important prerequisite in order to allow degradation of FKBP51. Thus, the binding affinities of the newly synthesized molecules (table 1) were tested.

Row | Ki [nM] | SMILES
1 | 18 ± 4 | COc1ccc(CC[C@@H](OC(=O)[C@@H]2CCCCN2C(=O)[C@H](c2cc(OC)c(OC)c(OC)c2)C2CCCCC2)c2cccc(OCc3cn(CCOCCOCCOCCOCC(=O)Nc4cccc5c4C(=O)N(C4CCC(=O)NC4=O)C5=O)nn3)c2)cc1OC (stereo partly drawn) [MTQ207, (2S)-(1R)-3-(3,4-Dimethoxyphenyl)-1-(3-((1-(14-((2-(2,6-dioxopiperidin-3-yl)-1,3-dioxoisoindolin-4-yl)amino)-14-oxo-3,6,9,12-tetraoxatetradecyl)-1H-1,2,3-triazol-4-yl)methoxy)phenyl)propyl 1-((S)-2-cyclohexyl-2-(3,4,5-trimethoxyphenyl)acetyl)piperidine-2-carboxylate]
2 | 23 ± 7 | COc1ccc(CC[C@H](OC(=O)[C@H]2CCCCN2C(=O)[C@H](c2cc(OC)c(OC)c(OC)c2)C2CCCCC2)c2cccc(OCc3cn(CCOCCOCCOCC(=O)N[C@H](C(=O)N4C[C@H](O)C[C@H]4C(=O)NCc4ccc(-c5scnc5C)cc4)C(C)(C)C)nn3)c2)cc1OC [MTQ201, (S)-(R)-3-(3,4-Dimethoxyphenyl)-1-(3-((1-((S)-13-((2S,4R)-4-hydroxy-2-((4-(4-methylthiazol-5-yl)benzyl)carbamoyl)pyrrolidine-1-carbonyl)-14,14-dimethyl-11-oxo-3,6,9-trioxa-12-azapentadecyl)-1H-1,2,3-triazol-4-yl)methoxy)phenyl)propyl 1-((S)-2-cyclohexyl-2-(3,4,5-trimethoxyphenyl)acetyl)piperidine-2-carboxylate]
3 | 12 ± 3 | COc1ccc(CC[C@H](OC(=O)[C@H]2CCCCN2C(=O)[C@H](c2cc(OC)c(OC)c(OC)c2)C2CCCCC2)c2cccc(OCc3cn(CCOCCOCCOCCOCCOCC(=O)N[C@H](C(=O)N4C[C@H](O)C[C@H]4C(=O)NCc4ccc(-c5scnc5C)cc4)C(C)(C)C)nn3)c2)cc1OC [MTQ203, (S)-(R)-3-(3,4-Dimethoxyphenyl)-1-(3-((1-((S)-19-((2S,4R)-4-hydroxy-2-((4-(4-methylthiazol-5-yl)benzyl)carbamoyl)pyrrolidine-1-carbonyl)-20,20-dimethyl-17-oxo-3,6,9,12,15-pentaoxa-18-azahenicosyl)-1H-1,2,3-triazol-4-yl)methoxy)phenyl)propyl 1-((S)-2-cyclohexyl-2-(3,4,5-trimethoxyphenyl)acetyl)piperidine-2-carboxylate]
4 | 22 ± 6 | COc1ccc(CC[C@@H](OC(=O)[C@@H]2CCCCN2C(=O)[C@H](c2cc(OC)c(OC)c(OC)c2)C2CCCCC2)c2cccc(OCc3cn(CCOCCOCCOCC(=O)Nc4cccc5c4C(=O)N(C4CCC(=O)NC4=O)C5=O)nn3)c2)cc1OC (stereo partly drawn) [MTQ206, (2S)-(1R)-3-(3,4-Dimethoxyphenyl)-1-(3-((1-(2-(2-(2-(2-((2-(2,6-dioxopiperidin-3-yl)-1,3-dioxoisoindolin-4-yl)amino)-2-oxoethoxy)ethoxy)ethoxy)ethyl)-1H-1,2,3-triazol-4-yl)methoxy)phenyl)propyl 1-((S)-2-cyclohexyl-2-(3,4,5-trimethoxyphenyl)acetyl)piperidine-2-carboxylate]
5 | 16 ± 5 | COc1ccc(CC[C@@H](OC(=O)[C@@H]2CCCCN2C(=O)[C@H](c2cc(OC)c(OC)c(OC)c2)C2CCCCC2)c2cccc(OCc3cn(CCOCCOCC(=O)Nc4cccc5c4C(=O)N(C4CCC(=O)NC4=O)C5=O)nn3)c2)cc1OC (stereo partly drawn) [MTQ205, (2S)-(1R)-3-(3,4-Dimethoxyphenyl)-1-(3-((1-(2-(2-(2-((2-(2,6-dioxopiperidin-3-yl)-1,3-dioxoisoindolin-4-yl)amino)-2-oxoethoxy)ethoxy)ethyl)-1H-1,2,3-triazol-4-yl)methoxy)phenyl)propyl 1-((S)-2-cyclohexyl-2-(3,4,5-trimethoxyphenyl)acetyl)piperidine-2-carboxylate]
6 | 5 ± 1 | COc1ccc(CC[C@@H](OC(=O)[C@@H]2CCCCN2C(=O)[C@H](c2cc(OC)c(OC)c(OC)c2)C2CCCCC2)c2cccc(OCc3cn(CCOCCOCCOCCOCCOCC(=O)Nc4cccc5c4C(=O)N(C4CCC(=O)NC4=O)C5=O)nn3)c2)cc1OC (stereo partly drawn) [MTQ208, (2S)-(1R)-3-(3,4-Dimethoxyphenyl)-1-(3-((1-(17-((2-(2,6-dioxopiperidin-3-yl)-1,3-dioxoisoindolin-4-yl)amino)-17-oxo-3,6,9,12,15-pentaoxaheptadecyl)-1H-1,2,3-triazol-4-yl)methoxy)phenyl)propyl 1-((S)-2-cyclohexyl-2-(3,4,5-trimethoxyphenyl)acetyl)piperidine-2-carboxylate]

Second part, the molecule before the results:

Row | SMILES | Ki [nM]
7 | C#CCOc1cc(CCC(OC(=O)C2CCCCN2C(=O)[C@H](c2cc(OC)c(OC)c(OC)c2)C2CCCCC2)c2cccc(OC)c2)ccc1OC (stereo in doubt) [Molecule (10), (S)-(R)-3-(4-methoxy-3-(prop-2-yn-1-yloxy)phenyl)-1-(3-methoxyphenyl)propyl 1-((S)-2-cyclohexyl-2-(3,4,5-trimethoxyphenyl)acetyl)piperidine-2-carboxylate] | 149 ± 39
8 | COc1ccc(CC[C@@H](OC(=O)[C@@H]2CCCCN2C(=O)[C@H](c2cc(OC)c(OC)c(OC)c2)C2CCCCC2)c2cccc(OCc3cn(CCOCC(=O)Nc4cccc5c4C(=O)N(C4CCC(=O)NC4=O)C5=O)nn3)c2)cc1OC (stereo partly drawn) [MTQ204, (25)-(1R)-3-(3,4-Dimethoxyphenyl)-1-(3-((1-(2-(2-((2-(2,6-dioxopiperidin-3-yl)-1,3-dioxoisoindolin-4-yl)amino)-2-oxoethoxy)ethyl)-1H-1,2,3-triazol-4-yl)methoxy)phenyl)propyl1-((S)-2-cyclohexyl-2-(3,4,5-trimethoxyphenyl)acetyl)piperidine-2-carboxylate] | 19 ± 5
9 | COc1cccc([C@@H](CCc2ccc(OCc3cn(CCOCCOCCOCCOCC(=O)N[C@H](C(=O)N4C[C@H](O)C[C@H]4C(=O)NCc4ccc(-c5scnc5C)cc4)C(C)(C)C)nn3)c(OC)c2)OC(=O)[C@@H]2CCCCN2C(=O)[C@H](c2cc(OC)c(OC)c(OC)c2)C2CCCCC2)c1 [MTQ331, (S)-(R)-3-(4-((1-((5)-16-((25,4R)-4-Hydroxy-2-((4-(4-methylthiazol-5-yl)benzyl)carbamoyl)pyrrolidine-l-carbonyl)-17,17-dimethyl-14-oxo-3,6,9,12-tetraoxa-15-azaoctadecyl)-1H-1,2,3-triazol-4-yl)methoxy)-3-methoxyphenyl)-1-(3-methoxyphenyl)propyl 1-((S)-2-cyclohexyl-2-(3,4,5-trimethoxyphenyl)acetyl)piperidine-2-carboxylate] | 59 ± 22
10 | C#CCOc1cccc([C@H](CCc2ccc(OC)c(OC)c2)OC(=O)[C@H]2CCCCN2C(=O)[C@H](c2cc(OC)c(OC)c(OC)c2)C2CCCCC2)c1 (stereo in doubt) [Molecule (9), (S)-(R)-3-(3,4-Dimethoxyphenyl)-1-(3-(prop-2-yn-1-yloxy)phenyl)propyl 1-((S)-2-cyclohexyl-2-(3,4,5-trimethoxyphenyl)acetyl)piperidine-2-carboxylate] | 32 ± 7
11 | COc1cccc([C@@H](CCc2ccc(OCc3cn(CCOCC(=O)Nc4cccc5c4C(=O)N(C4CCC(=O)NC4=O)C5=O)nn3)c(OC)c2)OC(=O)[C@@H]2CCCCN2C(=O)[C@H](c2cc(OC)c(OC)c(OC)c2)C2CCCCC2)c1 (stereo partly drawn) [MTQ333, (25)-(1R)-3-(4-((1-(2-(2-((2-(2,6-Dioxopiperidin-3-yl)-1,3-dioxoisoindolin-4-yl)amino)-2-oxoethoxy)ethyl)-1H-1,2,3-triazol-4-yl)methoxy)-3-methoxyphenyl)-1-(3-methoxyphenyl)propyl 1-((S)-2-cyclohexyl-2-(3,4,5-trimethoxyphenyl)acetyl)piperidine-2-carboxylate] | 22 ± 6
12 | COc1ccc(CC[C@H](OC(=O)[C@H]2CCCCN2C(=O)[C@H](c2cc(OC)c(OC)c(OC)c2)C2CCCCC2)c2cccc(OCc3cn(CCOCC(=O)N[C@H](C(=O)N4C[C@H](O)C[C@H]4C(=O)NCc4ccc(-c5scnc5C)cc4)C(C)(C)C)nn3)c2)cc1OC (stereo in doubt) [MTQ199, (S)-(R)-3-(3,4-Dimethoxyphenyl)-1-(3-((1-(2-(2-(((S)-1-((2S,4R)-4-hydroxy-2-((4-(4-methylthiazol-5-yl)benzyl)carbamoyl)pyrrolidin-1-yl)-3,3-dimethyl-1-oxobutan-2-yl)amino)-2-oxoethoxy)ethyl)-1H-1,2,3-triazol-4-yl)methoxy)phenyl)propyl 1-((S)-2-cyclohexyl-2-(3,4,5-trimethoxyphenyl)acetyl)piperidine-2-carboxylate] | 25 ± 6
13 | COc1cccc([C@@H](CCc2ccc(OCc3cn(CCOCCOCC(=O)Nc4cccc5c4C(=O)N(C4CCC(=O)NC4=O)C5=O)nn3)c(OC)c2)OC(=O)[C@@H]2CCCCN2C(=O)[C@H](c2cc(OC)c(OC)c(OC)c2)C2CCCCC2)c1 (stereo partly drawn) [MTQ334, (25)-(1R)-3-(4-((1-(2-(2-(2-((2-(2,6-Dioxopiperidin-3-yl)-1,3-dioxoisoindolin-4-yl)amino)-2-oxoethoxy)ethoxy)ethyl)-1H-1,2,3-triazol-4-yl)methoxy)-3-methoxyphenyl)-1-(3-methoxyphenyl)propyl 1-((S)-2-cyclohexyl-2-(3,4,5-trimethoxyphenyl)acetyl)piperidine-2-carboxylate] | 21 ± 10
14 | COc1cccc([C@H](CCc2ccc(OCc3cn(CCOCCOCC(=O)N[C@H](C(=O)N4C[C@H](O)C[C@H]4C(=O)NCc4ccc(-c5scnc5C)cc4)C(C)(C)C)nn3)c(OC)c2)OC(=O)[C@H]2CCCCN2C(=O)[C@H](c2cc(OC)c(OC)c(OC)c2)C2CCCCC2)c1 [MTQ329, (S)-(R)-3-(4-((1-(2-(2-(2-(((S)-1-((2S,4R)-4-Hydroxy-2-((4-(4-methylthiazol-5-yl)benzyl)carbamoyl)pyrrolidin-1-yl)-3,3-dimethyl-1-oxobutan-2-yl)amino)-2-oxoethoxy)ethoxy)ethyl)-1H-1,2,3-triazol-4-yl)methoxy)-3-methoxyphenyl)-1-(3-methoxyphenyl)propyl 1-((S)-2-cyclohexyl-2-(3,4,5-trimethoxyphenyl)acetyl)piperidine-2-carboxylate] | 60 ± 16
